Measurements published in ChEMBL document CHEMBL4616660, “Phenylpropanoid-Conjugated Triterpenoids from the Leaves of Actinidia arguta and Their Inhibitory Activity on α-Glucosidase” (J Nat Prod, 2020).

Test system: Saccharomyces cerevisiae
Experiment: Inhibition of Saccharomyces cerevisiae alpha-glucosidase at 100 uM using p-nitrophenyl alpha-Dglucopyranoside as substrate preincubated for 15 mins followed by substrate addition and measured after 20 mins relative to control

Structure (SMILES)	inhibition
C[C@H]1[C@H](C)CC[C@]2(C(=O)O)CC[C@]3(C)C(=CC[C@@H]4[C@@]5(C)C[C@@H](O)[C@H](OC(=O)/C=C/c6ccc(O)cc6)[C@@](C)(CO)[C@@H]5CC[C@]43C)[C@H]12	81.3%
C=C1C=C[C@]2(C(=O)O)CC[C@]3(C)C(=CC[C@@H]4[C@@]5(C)C[C@@H](O)[C@@H](O)[C@@](C)(CO)[C@@H]5CC[C@]43C)[C@@H]2[C@H]1C	3%
C[C@H]1[C@H](C)CC[C@]2(C(=O)O)CC[C@]3(C)C(=CC[C@@H]4[C@@]5(C)C[C@@H](O)[C@H](O)[C@@](C)(COC(=O)/C=C\c6ccc(O)cc6)[C@@H]5CC[C@]43C)[C@H]12	59%
C=C1CC[C@]2(C(=O)O)CC[C@]3(C)C(=CC[C@@H]4[C@@]5(C)C[C@@H](O)[C@H](O)[C@@](C)(COC(=O)/C=C/c6ccc(O)cc6)[C@@H]5CC[C@]43C)[C@@H]2[C@H]1C	59.9%
C=C1CC[C@]2(C(=O)O)CC[C@]3(C)C(=CC[C@@H]4[C@@]5(C)C[C@@H](O)[C@H](OC(=O)/C=C/c6ccc(O)cc6)[C@@](C)(CO)[C@@H]5CC[C@]43C)[C@@H]2[C@H]1C	65.8%
C=C1CC[C@]2(C(=O)O)CC[C@]3(C)C(=CC[C@@H]4[C@@]5(C)C[C@@H](O)[C@H](O)[C@@](C)(COC(=O)/C=C\c6ccc(O)cc6)[C@@H]5CC[C@]43C)[C@@H]2[C@H]1C	38.8%
C=C1CC[C@]2(C(=O)O)CC[C@]3(C)C(=CC[C@@H]4[C@@]5(C)C[C@@H](O)[C@H](OC(=O)/C=C\c6ccc(O)cc6)[C@@](C)(CO)[C@@H]5CC[C@]43C)[C@@H]2[C@H]1C	41.4%
C=C1CC[C@]2(C(=O)O)CC[C@]3(C)C(=CC[C@@H]4[C@@]5(C)C[C@@H](O)[C@H](O)[C@@](C)(CO)[C@@H]5CC[C@]43C)[C@@H]2[C@H]1C	13%
C[C@H]1[C@H](C)CC[C@]2(C(=O)O)CC[C@]3(C)C(=CC[C@@H]4[C@@]5(C)C[C@@H](O)[C@H](OC(=O)/C=C/c6ccc(O)c(O)c6)[C@@](C)(CO)[C@@H]5CC[C@]43C)[C@H]12	72.8%
C=C1CC[C@]2(C(=O)O)CC[C@]3(C)C(=CC[C@@H]4[C@@]5(C)C[C@@H](O)[C@@H](O)[C@@](C)(CO)[C@@H]5CC[C@]43C)[C@@H]2[C@H]1C	1.7%
C[C@H]1[C@H](C)CC[C@]2(C(=O)O)CC[C@]3(C)C(=CC[C@@H]4[C@@]5(C)C[C@@H](O)[C@H](O)[C@@](C)(COC(=O)/C=C/c6ccc(O)cc6)[C@@H]5CC[C@]43C)[C@H]12	67%
C[C@H]1O[C@H](O[C@H]2[C@H](O)[C@@H](O)[C@@H](O[C@H]3[C@H](O)[C@@H](O)C(O)O[C@@H]3CO)O[C@@H]2CO)[C@H](O)[C@@H](O)[C@@H]1N[C@H]1C=C(CO)[C@@H](O)[C@H](O)[C@H]1O (stereo partly specified)	72.8%
CO[C@@H]1C(O)=C2[C@@H]3[C@@H](C)[C@H](C)CC[C@]3(C)CC[C@@]2(C)[C@]2(C)CC[C@H]3C(C)(C)[C@@H](O)CC[C@]3(C)[C@@H]12	23.9%
C[C@H]1[C@H](C)CC[C@]2(CO)CC[C@]3(C)C(=CC(=O)[C@@H]4[C@@]5(C)CC[C@H](O)C(C)(C)[C@@H]5CC[C@]43C)[C@H]12	34.3%
C[C@H]1[C@H](C)CC[C@]2(C(=O)O)CC[C@]3(C)C(=CC[C@@H]4[C@@]5(C)C[C@@H](OC(=O)/C=C/c6ccc(O)cc6)[C@H](O)[C@@](C)(CO)[C@@H]5CC[C@]43C)[C@H]12	67.2%
C=C1CC[C@]2(C(=O)O)CC[C@]3(C)C(=CC[C@@H]4[C@@]5(C)C[C@@H](OC(=O)/C=C/c6ccc(O)cc6)[C@H](O)[C@@](C)(CO)[C@@H]5CC[C@]43C)[C@@H]2[C@H]1C	70.1%
